In brackets after ≈: the same amount, converted by molar mass. Several values for one entry are separate records, joined by “and”; a condition that tells them apart may be missing. Equal values may be shown once. Read-outs that look alike come from different tables or passages of the source.
Experiments:
Culex pipiens larvae = experiment: Toxicity assay against C. pipiens larvae (WHO larval bioassay); assay type: in vivo; details: for LC50: Culex pipiens
Description: A susceptible strain of C. pipiens culture was obtained from Research Institute of Medical Entomology, Ministry of Health, Dokki, Giza, Egypt, and reared in High Institute of Public Health insectary, Alexandria University, Alexandria, Egypt. The Larvae were fed on biscuits [containing wheat flour and yeast powder mixed with milk powder (10: 1: 1, w/w, respectively)] until pupation in shallow trays containing 2–3 L of de-chlorinated water. Male adults were fed on 30% sucrose solution, and females were fed on pigeon blood four times a week in adult cages. […] The egg rafts were transferred from adult cages to white trays containing de-chlorinated water for egg hatch.
According to the World Health Organization, the larval bioassay was performed to compare the effect of nanoemulsions of selected pyrethroids with their active ingredient and commercial EC formulations on the C. pipiens larva recommendations. Third instar larvae were used in the evaluation by a direct contact method. The three forms of tested insecticides (technical, commercial EC formulation, and nanoemulsion) were tested to obtain the LC50 values. Technical pyrethroids were dissolved in DMSO and mixed with Tween-80 (0.05%), while the EC and nanoemulsions were dissolved in distilled water. Different concentrations ranging from 0.5 to 500 μg/L were tested in three replicates. Twenty C. pipiens larvae were put into plastic cups containing 100 mL of de-chlorinated water. The larvae were treated separately with Tween 80 or DMSO, and larvae without any treatment were maintained as control. The larvae’s morbidity and mortality were verified and recorded based on the larvae’s uncoordinated movement after investigating the cervical region with a needle.

[1] = system: adenosine triphosphatase (ATPase); experiment: ATPase assay in homogenate of surviving treated larvae; assay type: biochemical, Culex pipiens; details: larvae 24 h after treatment with LC50, untreated 1.40
Procedure: ATPase activity was performed according to Koch’s method. The reaction mixture, which contained 400 mM Na^+, 20 mM K^+, 5 mM Mg ^+, and 5 mM ATP, was prepared, and 200 μL of the crude enzyme was added to this mixture. Then, the volume was completed to 950 μL with Tris-HCl buffer (pH 7.4). After 10 min incubation at 37 °C, the reaction was stopped with 200 μL of TCA. A fresh color reagent (5 g ferrous sulfate in 10 mL ammonium molybdate solution prepared in 10 N sulfuric acid) was added to the reaction mixture. The absorbance of the developed blue color was measured at 740 nm, and the enzyme activity was calculated as OD740 min^−1 mg protein^−1.

carboxylesterase (CaE) = experiment: CaE assay in homogenate of surviving treated larvae; assay type: biochemical, Culex pipiens; details: larvae 24 h after treatment with LC50, untreated 3.31
Procedure: CaE activity was determined according to Van Asperen’s method, which used α-naphthyl acetate as a substrate. The assay mixture contained 50 μL of homogenate enzyme, 2.1 mL of 50 mM sodium phosphate buffer (pH 7.4), and 25 μL of 5 mM α-naphthyl acetate solution. The mixture incubation was done at 37 °C for 15 min. […] The absorption was measured at 555 nm. The enzyme activity was expressed as OD555 min^−1 mg protein^−1.

[2] = system: freshwater green alga Raphidocelis subcapitata; experiment: whole plant or invertebrate; details: for EC50: Raphidocelis subcapitata, 96 h, read-out: 96 h EC50 (95% confidence limits); for NOEC: no observed effect concentration on algal growth rate, NOEC = EC/10
Procedure: The freshwater green alga Raphidocelis subcapitata was obtained from the Faculty of Science; Mansoura University, Egypt. The stock culture was maintained in 250-mL borosilicate Erlenmeyer flasks containing culture medium at 24 ± 2 °C, under a continuous white fluorescent light of 3000–4000 lux, and manually shaken twice a day. The axenic culture was maintained for the provision of a continuous supply of “healthy” cells for the tests in a standard algal assay medium (AAM) as described in Miller et al..
An acute algal growth inhibition test was conducted using different concentrations of each insecticide in sterile AAM in a final volume of 50 mL. Tested concentrations of a pesticide were prepared from stock solutions on an arithmetic progression covering an expected range of toxicity from 0 to 90%. Stock solutions of technical insecticides were prepared in 1% DMSO and a corresponding control was included. Stock solutions of the EC and NE were prepared. Algal suspensions were exposed to different concentrations (0.0005–500 mg/L) prepared in the same medium of algae culture. All assays were conducted in triplicate. An inoculum of the exponentially-growing culture of R. subcapitata (harvested from 4–7 days stock culture) was prepared no more than 2–3 h before the beginning of the test. Initial cell density for the growth inhibition test was 10,000 cells/ml in both test and control flasks. Zero-time begins at inoculation of all flasks with the algal cells followed by incubation for 96 h in a temperature-controlled (25 °C) orbital shaker set at 100 rpm under continuous illumination via white fluorescent lamps. After 96 h, algal growth in terms of viable cell concentration was examined in a Neubauer hemocytometer using a phase-contrast microscope. Growth rate inhibition of the alga was used as the endpoint in this assessment. The percent inhibition values were calculated after 96 h, and the median effective concentration (EC50) values were calculated from the probit analysis with 95% confidence limits. The no observed effect concentration (NOEC) after algal exposure to each tested insecticide was calculated by the formula: NOEC = EC/10 [31]. Furthermore, the hazard statement of each tested insecticide was estimated according to UNECE GHS (2019).
Statistical analysis was performed using the IBM SPSS software version 25.0 (SPSS, Chicago, IL, USA). Mortality percentages were calculated for each treatment and corrected using Abbott’s equation [34]. Means and standard error (SE) were obtained from three independent replications performed for each treatment. The log dose-response (LdP) lines were used in the determination of the LC50 values for the mosquito’s bioassay and EC50 values for the algal bioassay according to the probit analysis. The least-square regression analysis was used to determine the 95% confidence limits. Analysis of variance (ANOVA) of the biochemical data was conducted and means property values were separated (p ≤ 0.05) with Student-Newman-Keuls (SNK).

[3] = system: glutathione-S-transferase (GST); details: larvae 24 h after treatment with LC50, untreated 2.70
Procedure: The homogenate was centrifuged at 5000 rpm for 20 min at 4°C. The supernatant was used immediately for enzymatic assay or stored at – 20 °C. Total protein was determined according to Lowry et al.’s [23] method, and the concentrations were calculated by comparing with the standard curve of BSA.
GST assay was performed using reduced glutathione (2.5 mM) by Saint-Deniset et al. [26]. The assay mixture contained 100 μL of 1.5 mM CDNB, 200 μL of reduced glutathione, and 1.5 ml of pH 7.4 phosphate buffer. A total of 200 μL of the enzyme was added to the above mixture, shaken gently, and incubated for 15 min at 37 °C. The absorbance was recorded at 340 nm using a UV/Visible spectrophotometer (Alpha-1502. Laxco Inc, USA). One unit of enzyme activity attributed to the quantity of conjugated enzyme with 1 mmol of GSH per min. The enzyme activity was expressed as OD340 min^−1 mg protein^−1.

[4] = system: C. tritaeniorhynchus larvae; parameters: method as in PMID 28245893; details: cited from earlier work
[5] = cited from earlier work

SMILES | Slope ± SE of the concentration mortality regression line (Culex pipiens larvae; 24 h exposure) | Slope ± SE of the concentration mortality regression line (Culex pipiens larvae; 48 h exposure) | EC50 [2] | NOEC [2] | LC50 (Culex pipiens larvae; 24 h) | LC50 (Culex pipiens larvae; 48 h) | Specific activity ± SE, CaE (carboxylesterase (CaE)) | further results
CC1(C)[C@H](C(=O)O[C@H](C#N)c2cccc(Oc3ccccc3)c2)[C@@H]1C=C(Br)Br [Deltamethrin, deltamethrin] | 2.23 ± 0.13 | 2.12 ± 0.13 | > 100 µg/mL | > 10 mg/L |  |  |  | LC50 (Culex pipiens larvae; third instar larvae, 24 h exposure, read-out: LC50): 0.028 µg/mL (≈ 0.0554 µM); LC50 (Culex pipiens larvae; third instar larvae, 48 h exposure, read-out: LC50): 0.025 µg/mL (≈ 0.0495 µM); Specific activity ± SE, ATPase ([1]; listed as Deltamethrin T): 0.69 OD mg protein^−1 min and 0.69 ± 0.02 OD mg protein^−1 min; Specific activity ± SE, CaE (carboxylesterase (CaE); listed as Deltamethrin T): 4.53 OD mg protein^−1 min and 3.44 ± 0.19 OD mg protein^−1 min; Specific activity ± SE, GST [3]: 5.49 ± 0.60 OD mg protein^−1 min
CC1(C)C(C=C(Cl)Cl)C1C(=O)OCc1cccc(Oc2ccccc2)c1 (centres unmarked) [Permethrin, permethrin] | 1.36 ± 0.089 | 1.26 ± 0.08 | 14.9 µg/mL (≈ 38.2 µM) | 1.494 mg/L | 0.322 µg/mL (≈ 0.823 µM) | 0.225 µg/mL (≈ 0.575 µM) | 2.31 ± 0.09 OD mg protein^−1 min | LC50 (Culex pipiens larvae; read-out: LC50 range): 0.127 to 0.322 µg/mL (≈ 0.325 to 0.823 µM); Specific activity ± SE, ATPase ([1]; listed as Permethrin T): 0.64 OD mg protein^−1 min and 0.64 ± 0.00 OD mg protein^−1 min; Specific activity ± SE, GST ([3]; listed as Permethrin T): 6.32 OD mg protein^−1 min and 6.32 ± 0.59 OD mg protein^−1 min
CC1(C)C(C=C(Cl)Cl)C1C(=O)OC(C#N)c1cccc(Oc2ccccc2)c1 (stereo not drawn) [Alpha-cypermethrin, alpha-cypermethrin] | 2.47 ± 0.15 |  | 69.3 µg/mL (≈ 167 µM) | 6.932 mg/L | 0.043 µg/mL (≈ 0.103 µM) | 0.04 µg/mL (≈ 0.0961 µM) | 5.06 ± 0.15 OD mg protein^−1 min | Specific activity ± SE, ATPase ([1]; listed as Alpha-cypermethrin T): 0.86 OD mg protein^−1 min and 0.86 ± 0.02 OD mg protein^−1 min; Specific activity ± SE, GST ([3]; listed as Alpha-cypermethrin T): 5.31 OD mg protein^−1 min and 5.31 ± 0.70 OD mg protein^−1 min
CC1(C)C(C=C(Cl)Cl)C1C(=O)OCc1cccc(Oc2ccccc2)c1 (centres unmarked) [bulk permethrin, permethrin] |  |  |  |  |  |  |  | LC50 [4]: 0.442 µg/mL (≈ 1.13 µM)
C[n+]1ccc(-c2cc[n+](C)cc2)cc1 [paraquat] |  |  |  |  |  |  |  | 96 h EC50 [5]: 0.48 µg/mL
CC1(C)[C@H](C(=O)O[C@H](C#N)c2cccc(Oc3ccccc3)c2)[C@@H]1/C=C(\Cl)C(F)(F)F (racemic) [Lambda-cyhalothrin, lambda-cyhalothrin] | 1.47 ± 0.09 | 1.30 ± 0.09 | 33.9 µg/mL (≈ 75.3 µM) | 3.389 mg/L | 0.027 µg/mL (≈ 0.06 µM) | 0.018 µg/mL (≈ 0.04 µM) | 1.51 ± 0.09 OD mg protein^−1 min | Specific activity ± SE, ATPase ([1]; listed as Lambda-cyhalothrin T): 0.62 OD mg protein^−1 min and 0.62 ± 0.05 OD mg protein^−1 min; Specific activity ± SE, GST ([3]; listed as Lambda-cyhalothrin T): 4.57 OD mg protein^−1 min and 4.57 ± 0.48 OD mg protein^−1 min
